Calls of active or inactive are those of the source. The rule behind the calls is not given here.
How the values were obtained:
[1] = Displacement of [3H]dexamethasone from human glucocorticoid receptor alpha
Glucocorticoid receptor = target: T1, Glucocorticoid receptor (Homo sapiens, UniProt P04150); assay: (§1) Activity at human glucocorticoid receptor in human A549 cells assessed as repression of human IL6; assay type: cell-based
T1 sequence (P04150 whole entry): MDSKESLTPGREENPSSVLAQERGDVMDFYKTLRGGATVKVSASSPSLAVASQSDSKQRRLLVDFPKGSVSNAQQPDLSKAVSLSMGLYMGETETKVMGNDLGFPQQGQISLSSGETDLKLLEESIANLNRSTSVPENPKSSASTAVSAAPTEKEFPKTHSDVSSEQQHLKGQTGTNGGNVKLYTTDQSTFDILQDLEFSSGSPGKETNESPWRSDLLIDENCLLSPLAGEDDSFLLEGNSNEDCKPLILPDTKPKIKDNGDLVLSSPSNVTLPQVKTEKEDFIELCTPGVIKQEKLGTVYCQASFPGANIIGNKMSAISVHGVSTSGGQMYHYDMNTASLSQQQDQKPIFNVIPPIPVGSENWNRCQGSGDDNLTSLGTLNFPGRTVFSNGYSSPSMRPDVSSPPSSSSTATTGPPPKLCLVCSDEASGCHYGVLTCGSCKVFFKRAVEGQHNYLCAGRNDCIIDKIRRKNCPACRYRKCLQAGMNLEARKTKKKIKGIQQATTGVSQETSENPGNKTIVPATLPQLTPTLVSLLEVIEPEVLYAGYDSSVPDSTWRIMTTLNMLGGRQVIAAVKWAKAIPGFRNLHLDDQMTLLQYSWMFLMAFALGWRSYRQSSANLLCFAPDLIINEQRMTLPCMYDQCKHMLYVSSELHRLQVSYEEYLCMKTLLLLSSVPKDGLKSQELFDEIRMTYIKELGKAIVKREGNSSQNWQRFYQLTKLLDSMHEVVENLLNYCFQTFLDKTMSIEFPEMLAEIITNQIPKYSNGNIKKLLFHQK

Mus musculus [2] = assay: Clearance in iv dosed mouse; assay type: functional, organism-based
Mus musculus [3] = assay: Half life in iv dosed mouse; assay type: functional, organism-based
Mus musculus [4] = assay: Antiinflammatory activity in mouse assessed as inhibition of LPS-induced TNFalpha at 30 mg/kg relative to prednisolone; assay type: functional
Mus musculus [5] = assay: Normalized AUC in iv dosed mouse; assay type: functional, organism-based
Mus musculus [6] = assay: Oral bioavailability in mouse; assay type: functional, organism-based
[7] = target: T2, Glucocorticoid receptor (Homo sapiens) (UniProt P04150); assay: Activity at human glucocorticoid receptor in human HepG2 cells assessed as tyrosine amino transferase activity; assay type: cell-based
T2 sequence (whole entry): T1 sequence (P04150 whole entry)

[8] = target: Glucocorticoid receptor (Mus musculus) (UniProt P06537); assay: Activity at mouse glucocorticoid receptor in C2C12 cells assessed as mouse glutamine synthetase activity
[9] = target: T2, Glucocorticoid receptor (Homo sapiens); assay: as §1; assay type: cell-based
Mus musculus [10] = species: Mus musculus; assay: animal or person; conditions: read-out: Inhibition
Mus musculus [11] = assay: Antiinflammatory activity in mouse assessed as inhibition of LPS-induced TNFalpha at 3 mg/kg; assay type: functional; set-up: scale not given: the % may be the effect or the level left

Sequence of Glucocorticoid receptor (Mus musculus) (P06537 whole entry, looked up): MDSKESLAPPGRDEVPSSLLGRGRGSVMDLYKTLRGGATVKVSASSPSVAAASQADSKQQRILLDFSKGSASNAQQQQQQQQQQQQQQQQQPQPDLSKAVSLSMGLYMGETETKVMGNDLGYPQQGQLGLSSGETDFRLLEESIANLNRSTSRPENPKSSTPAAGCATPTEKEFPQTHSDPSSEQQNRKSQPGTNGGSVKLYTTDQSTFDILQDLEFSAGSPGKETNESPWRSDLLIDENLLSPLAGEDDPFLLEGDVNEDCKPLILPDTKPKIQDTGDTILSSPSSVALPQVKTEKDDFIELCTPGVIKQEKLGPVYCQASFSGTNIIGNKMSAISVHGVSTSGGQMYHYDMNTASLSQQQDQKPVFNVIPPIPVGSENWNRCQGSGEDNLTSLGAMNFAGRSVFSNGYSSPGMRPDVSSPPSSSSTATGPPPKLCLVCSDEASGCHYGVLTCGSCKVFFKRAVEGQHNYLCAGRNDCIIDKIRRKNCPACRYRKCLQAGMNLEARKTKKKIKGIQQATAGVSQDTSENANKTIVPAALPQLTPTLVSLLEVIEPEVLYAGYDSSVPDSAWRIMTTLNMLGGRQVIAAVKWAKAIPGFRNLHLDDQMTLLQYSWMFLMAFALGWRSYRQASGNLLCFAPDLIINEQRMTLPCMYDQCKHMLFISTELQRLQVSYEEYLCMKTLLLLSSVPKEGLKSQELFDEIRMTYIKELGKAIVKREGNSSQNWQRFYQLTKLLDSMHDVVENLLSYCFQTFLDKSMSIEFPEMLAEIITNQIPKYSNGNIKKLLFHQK

Molecule C[C@]12Cc3cnn(-c4ccc(F)cc4)c3C=C1CCC[C@@H]2[C@@H](O)c1ccsc1 has an IC50 [1] of 5.1 nM and an EC50 (Glucocorticoid receptor) of 1 nM.

In the case of C[C@]12Cc3cnn(-c4ccc(F)cc4)c3C=C1CC[C@@H]2[C@H](O)c1csc2ccccc12, the CL (mL.min-1.kg-1) (Mus musculus [2]) is reported as 22.3, the T1/2 (Mus musculus [3]) is reported as 7.8 h and the inhibition in vivo at 30 mg/kg (Mus musculus [4]) is reported as 103%. It also gave an AUC (Mus musculus [5]) of 1.7 µM·h/mg/kg and a bioavailability (Mus musculus [6]) of 34%.

With C[C@]12Cc3cnn(-c4ccc(F)cc4)c3C=C1CC[C@@H]2[C@H](O)c1ccc2ccccc2c1 the IC50 [1] was 198 nM, the Activity [7] was “inactive” and the Activity [8] was “inactive”.

Molecule C[C@]12Cc3cnn(-c4ccc(F)cc4)c3C=C1CC[C@@H]2[C@@H](O)c1csc2ccccc12 has an inhibition in vivo at 30 mg/kg (Mus musculus [4]) of 113%.

For C[C@]12Cc3cnn(-c4ccc(F)cc4)c3C=C1CC[C@@H]2[C@@H](O)c1ccc2ccccc2c1, the IC50 [1] was 86 nM, the Activity [7] was “inactive” and the Activity [8] was “inactive”.

With C[C@]12Cc3cnn(-c4ccc(F)cc4)c3C=C1CC[C@@H]2[C@@H](O)c1cc2ccccc2s1 the IC50 [1] was 69.1 nM, the Activity [7] was “inactive” and the Activity [8] was “inactive”.

With C[C@]12Cc3cnn(-c4ccc(F)cc4)c3C=C1CC[C@@H]2[C@H](O)c1cc2ccccc2s1 the IC50 [1] was 689 nM, the Activity [7] was “inactive” and the Activity [9] was “inactive”.

C[C@]12Cc3cnn(-c4ccc(F)cc4)c3C=C1CCC[C@@H]2[C@@H](O)c1csc2ccccc12 gave an IC50 [1] of 5.1 nM.

Work on C[C@]12Cc3cnn(-c4ccc(F)cc4)c3C=C1CCC[C@@H]2[C@H](O)c1csc2ccccc12 yielded an IC50 [1] of 1.5 nM and an EC50 [8] of 3 nM.

For C[C@]12C=CC(=O)C=C1CC[C@@H]1[C@@H]2[C@@H](O)C[C@@]2(C)[C@H]1CC[C@]2(O)C(=O)CO [PREDNISOLONE], the inhibition in vivo at 3 mg/kg (Mus musculus [10]) was 100% and the Activity (Mus musculus [11]) was 71%.

In the case of C[C@]12Cc3cnn(-c4ccc(F)cc4)c3C=C1CCC[C@@H]2[C@@H](O)c1cc2ccccc2s1, the EC50 [8] is reported as 1210 nM.
